How the values were obtained:
[1] = test system: constitutively activated mutant canine KIT (BR and C2 cells); assay: KIT autophosphorylation in BR and C2 cell lysates (anti-P-Tyr Western immunoblot); assay type: cell-based
Text: Antibodies: A polyclonal rabbit anti-KIT antibody (c-kit Ab-1) was used at a dilution of 1:500 (c-kit Ab-1; Oncogene, Cambridge, Mass.). An anti-phosphotyrosine antibody (PY20) was used at a dilution of 1:1000 (PY20 Transduction Laboratories; Lexington, Ky.). Peroxidase conjugated goat anti-mouse antibody was used at a dilution of 1:5000 and goat anti-rabbit antibody at a dilution of 1:10,000 (Pierce; Rockford, Ill.).
(§1) Cell lines: BR and C2 canine mastocytoma cells lines were obtained from Dr. George Caughey (University of California at San Francisco, San Francisco, Calif.). Both cell lines were maintained in DMEM supplemented with 2% bovine calf, 1 mM L-glutamine, 12.5 mM HEPES (pH 7.5), 0.25 mg/mL Histidine, 1% Penicillin-Streptomycin and 1% fungizone. The BR and C2 cells were derived from canine mast cell tumors and were originally established in long-term culture after initial passaging in immunodeficient mice (DeVinney et al., Am. J. Respir. Cell Mol. Biol., Vol. 3, No. 5, pp. 413-420 (1990); Lazarus et al., Am. J. Physiol., Vol. 251, No. 6, Pt 1, pp. C935-C944 (1986)). The BR cell line has a point mutation (T1752C) resulting in a Leucine to Proline substitution at amino acid 575 (juxtamembrane domain). The C2 cell line has an internal tandem duplication (ITD) of the KIT juxtamembrane region.
Protein lysates: BR and C2 cells were washed ×2 in PBS and then quiesced in Optimem (Gibco-BRL) at 37° C. for approximately 18 hours.
Dermatol., Vol.114, No. 2, pp. 392-394 (2000)).

[2] = test system: cutaneous mast cell tumors; assay: Prospective case series of pet dogs with measurable cutaneous mast cell tumors; assay type: in vivo, dog; conditions: 25 mg/kg PO QD x 60 days of SALT I
Procedure: The study patients are pet dogs with measurable and histologically-confirmed mast cell tumors. Cases are limited to those with measurable lesions amenable to biopsy.
Pretreatment evaluation of all cases include physical examination, complete blood count, buffy coat, serum biochemistry, urinalysis, serum bile acids (fasting and post-prandial), documentation of regional lymph node size, abdominal radiographs and abdominal ultrasound. The treatment regimen is 25 mg/kg PO QD×60 days of SALT I.
Treatment is continued in all cases for 60 days unless disease progression is noted. In cases experiencing partial response or complete response ongoing therapy for an additional 60 days may be considered. Cases successfully completing therapy are eligible for repeat entry to study.
The efficacy of COMPOUND I is assessed against measurable cutaneous mast cell tumors, using clinical endpoints. Biological endpoints may be taken from serial biopsies collected from cutaneous tumors and from blood samples available through the treatment course.
Clinical endpoints include response rate of measurable tumors, objective response against measurable tumor, and time to progression of measurable tumor. All adverse side effects will be recorded.
Furthermore, it may be observed that more animals obtaining treatment show Stable Disease (SD), while less treated animals show Progressive Disease (PD). […]

BR or C2 cells = assay: Proliferation of BR or C2 cells (cell lines not separated); assay type: cell-based, canine
Procedure: as §1

## Cc1ccc(NC(=O)c2ccc(CN3CCN(C)CC3)cc2)cc1Nc1nccc(-c2cccnc2)n1 [COMPOUND I]
[1]; 0.1 μM dose, BR or C2 cells
  Inhibition of KIT autophosphorylation: Near complete inhibition
[1]; 0.001-0.01 μM doses, BR or C2 cells
  Autophosphorylation of c-kit: Limited autophosphorylation
[1]; 10 and 1.0 μM doses, BR or C2 cells, 90 minutes incubation, no SLF
  Inhibition of KIT autophosphorylation: complete inhibition
[1]; BR and C2 cells against literature wild type value
  Potency on mutated c-kit receptor compared with wild type c-kit receptor: more potent inhibitor of this mutated receptor than it is of the wild type c-kit receptor
[1]; treated BR or C2 cells
  Expression of c-kit protein (membrane reprobed with anti-c-kit antibody): no change in expression of c-kit protein
[2]
  Objective Tumors Responses: are observed
BR or C2 cells; 0.001-0.01 μM, 48-72 hours
  Inhibition of proliferation: Partial inhibition
BR or C2 cells; data not shown
  Morphologic observations of inhibitor treated cells: changes consistent with apoptosis
